Reference: ChEMBL document CHEMBL1201862, “PubChem BioAssay data set” (2004)
Activity calls are given as the source filed them.

How the values were obtained:
[1] = molecular target: T1, DNA dC->dU-editing enzyme APOBEC-3G (Homo sapiens, UniProt Q9HC16); test: Dose Response confirmation of small molecule APOBEC3G DNA Deaminase Inhibitors via a fluorescence-based single-stranded DNA deaminase assay. [Related pubchem assays (depositor defined):AID493012, AID493028]; type: functional
[2] = molecular target: T2, DNA dC->dU-editing enzyme APOBEC-3A (Homo sapiens, UniProt P31941); test: APOBEC3A DNA deaminase inhibitors, dose response, biochemical (AID 504722); type: functional
T2 sequence (P31941 whole entry): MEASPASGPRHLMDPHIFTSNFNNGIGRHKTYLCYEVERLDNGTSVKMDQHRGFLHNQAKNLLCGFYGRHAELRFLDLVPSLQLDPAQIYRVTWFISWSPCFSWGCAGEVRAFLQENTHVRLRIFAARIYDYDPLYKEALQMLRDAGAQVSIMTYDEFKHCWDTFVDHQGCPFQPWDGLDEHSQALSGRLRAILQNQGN

[3] = molecular target: T3, Estrogen receptor (Homo sapiens, UniProt P03372);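 note: potency for inhibiting coactivator peptide recruitment to the receptor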
T3 sequence (P03372 whole entry): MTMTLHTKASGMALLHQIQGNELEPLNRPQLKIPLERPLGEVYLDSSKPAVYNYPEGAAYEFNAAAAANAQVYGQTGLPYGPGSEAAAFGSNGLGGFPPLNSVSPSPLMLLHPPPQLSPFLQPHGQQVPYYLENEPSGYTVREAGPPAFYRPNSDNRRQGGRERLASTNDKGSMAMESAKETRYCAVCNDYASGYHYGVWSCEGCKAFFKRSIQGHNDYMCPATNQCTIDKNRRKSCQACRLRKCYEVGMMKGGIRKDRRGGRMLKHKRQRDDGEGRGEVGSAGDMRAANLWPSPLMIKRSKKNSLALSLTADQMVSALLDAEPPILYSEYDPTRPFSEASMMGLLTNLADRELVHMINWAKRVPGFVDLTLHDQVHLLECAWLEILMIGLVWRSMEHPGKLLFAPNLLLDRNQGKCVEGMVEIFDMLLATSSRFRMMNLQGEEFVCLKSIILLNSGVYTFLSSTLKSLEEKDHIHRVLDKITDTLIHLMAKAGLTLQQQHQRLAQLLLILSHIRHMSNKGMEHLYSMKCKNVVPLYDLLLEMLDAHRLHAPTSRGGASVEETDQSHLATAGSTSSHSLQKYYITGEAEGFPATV

[4] = molecular target: T4, Endoribonuclease toxin MazF (Escherichia coli K-12, UniProt P0AE70); test: MazF toxin RNase activators, dose response, biochemical, fluorescence, single-stranded RNA substrate, uHTS hits (AID 588481); type: functional
T4 sequence (P0AE70 whole entry): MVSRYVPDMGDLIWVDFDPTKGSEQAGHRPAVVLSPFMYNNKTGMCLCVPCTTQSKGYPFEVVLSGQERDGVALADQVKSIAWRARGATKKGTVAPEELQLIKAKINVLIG

[5] = molecular target: T4, Endoribonuclease toxin MazF; test: fluorescent RNA oligo signal without MazF, dose response, counter-screen for MazEF activator project, biochemical, fluorescence, single-stranded RNase substrate (AID 588502); type: functional
[6] = molecular target: T5, Leucine aminopeptidase (Plasmodium falciparum 3D7, UniProt Q8IL11); test: P. falciparum M17LAP inhibitors, primary screen, biochemical, fluorogenic H-Leu-NHMec substrate, 1536-well (AID 1619); type: functional
T5 sequence (Q8IL11 whole entry): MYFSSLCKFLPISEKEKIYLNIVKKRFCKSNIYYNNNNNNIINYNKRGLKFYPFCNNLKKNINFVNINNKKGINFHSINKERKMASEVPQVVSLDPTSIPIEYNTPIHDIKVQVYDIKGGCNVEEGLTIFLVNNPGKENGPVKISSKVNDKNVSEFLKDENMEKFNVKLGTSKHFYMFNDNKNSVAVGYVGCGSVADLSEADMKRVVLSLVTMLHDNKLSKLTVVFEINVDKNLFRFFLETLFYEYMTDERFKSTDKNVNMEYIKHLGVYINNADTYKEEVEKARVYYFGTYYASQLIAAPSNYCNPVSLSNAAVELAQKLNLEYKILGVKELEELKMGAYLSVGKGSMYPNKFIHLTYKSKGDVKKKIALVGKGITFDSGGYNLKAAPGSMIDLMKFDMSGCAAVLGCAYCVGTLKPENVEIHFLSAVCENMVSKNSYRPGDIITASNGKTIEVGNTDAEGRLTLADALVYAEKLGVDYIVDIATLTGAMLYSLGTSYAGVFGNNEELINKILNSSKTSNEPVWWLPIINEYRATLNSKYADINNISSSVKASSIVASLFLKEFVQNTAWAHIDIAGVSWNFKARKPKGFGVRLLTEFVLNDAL

[7] = molecular target: Voltage-dependent T-type calcium channel subunit alpha-1H (Homo sapiens, UniProt O95180); type: functional;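 note: channel activity triggered by adding a high calcium stimulation buffer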
[8] = molecular target: T2, DNA dC->dU-editing enzyme APOBEC-3A; test: Dose Response confirmation of small molecule APOBEC3A DNA Deaminase Inhibitors via a fluorescence-based single-stranded DNA deaminase assay. [Related pubchem assays (depositor defined):AID493011, AID493024]; type: functional
[9] = molecular target: T1, DNA dC->dU-editing enzyme APOBEC-3G; type: functional
[10] = molecular target: T6, Aminopeptidase N (Plasmodium falciparum FcB1/Columbia, UniProt O96935); test: P. falciparum M1AAP inhibitors, biochemical, fluorogenic H-Leu-NHMec substrate, 1536-well (AID 1445); design: species or system Plasmodium falciparum 3D7, 3D7
T6 sequence (O96935 whole entry): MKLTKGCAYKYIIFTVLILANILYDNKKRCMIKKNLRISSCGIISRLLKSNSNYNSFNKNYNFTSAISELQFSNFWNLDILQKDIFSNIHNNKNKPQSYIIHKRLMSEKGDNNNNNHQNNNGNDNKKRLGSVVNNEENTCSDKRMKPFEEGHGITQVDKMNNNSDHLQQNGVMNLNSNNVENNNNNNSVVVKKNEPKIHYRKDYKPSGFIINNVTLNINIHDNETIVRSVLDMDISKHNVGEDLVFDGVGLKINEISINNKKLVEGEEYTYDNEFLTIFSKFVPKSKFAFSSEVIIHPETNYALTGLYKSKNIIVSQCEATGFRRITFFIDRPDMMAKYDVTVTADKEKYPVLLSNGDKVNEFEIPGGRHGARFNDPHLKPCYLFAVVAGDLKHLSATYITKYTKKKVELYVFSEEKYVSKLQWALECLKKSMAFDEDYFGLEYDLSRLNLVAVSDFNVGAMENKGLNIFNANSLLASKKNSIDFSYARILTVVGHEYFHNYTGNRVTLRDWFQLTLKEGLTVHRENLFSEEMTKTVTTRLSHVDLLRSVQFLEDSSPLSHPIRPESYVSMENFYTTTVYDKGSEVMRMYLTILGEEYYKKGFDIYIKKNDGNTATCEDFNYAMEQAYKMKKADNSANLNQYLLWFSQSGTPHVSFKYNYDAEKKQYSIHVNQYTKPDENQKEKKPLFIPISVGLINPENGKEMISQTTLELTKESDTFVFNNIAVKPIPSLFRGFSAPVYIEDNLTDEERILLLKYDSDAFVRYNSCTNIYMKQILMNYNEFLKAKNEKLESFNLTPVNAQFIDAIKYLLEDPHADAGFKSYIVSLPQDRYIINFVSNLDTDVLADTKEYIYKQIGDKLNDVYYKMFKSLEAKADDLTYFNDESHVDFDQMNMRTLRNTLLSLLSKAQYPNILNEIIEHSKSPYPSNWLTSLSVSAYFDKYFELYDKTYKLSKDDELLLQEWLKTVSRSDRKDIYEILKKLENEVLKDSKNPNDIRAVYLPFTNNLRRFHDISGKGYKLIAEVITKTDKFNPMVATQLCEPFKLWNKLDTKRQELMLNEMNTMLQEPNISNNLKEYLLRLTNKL

[11] = molecular target: T7, Polyadenylate-binding protein 1 (Homo sapiens, UniProt P11940); test: PABP1 MLLE–PAM2 interaction inhibitors, dose response, miRNA deadenylation inhibitor project, biochemical, fluorescence polarization, Cy5-PAM2 peptide, secondary (AID 602260); type: functional; conditions: read-out: IC50_Mean
T7 sequence (P11940 whole entry): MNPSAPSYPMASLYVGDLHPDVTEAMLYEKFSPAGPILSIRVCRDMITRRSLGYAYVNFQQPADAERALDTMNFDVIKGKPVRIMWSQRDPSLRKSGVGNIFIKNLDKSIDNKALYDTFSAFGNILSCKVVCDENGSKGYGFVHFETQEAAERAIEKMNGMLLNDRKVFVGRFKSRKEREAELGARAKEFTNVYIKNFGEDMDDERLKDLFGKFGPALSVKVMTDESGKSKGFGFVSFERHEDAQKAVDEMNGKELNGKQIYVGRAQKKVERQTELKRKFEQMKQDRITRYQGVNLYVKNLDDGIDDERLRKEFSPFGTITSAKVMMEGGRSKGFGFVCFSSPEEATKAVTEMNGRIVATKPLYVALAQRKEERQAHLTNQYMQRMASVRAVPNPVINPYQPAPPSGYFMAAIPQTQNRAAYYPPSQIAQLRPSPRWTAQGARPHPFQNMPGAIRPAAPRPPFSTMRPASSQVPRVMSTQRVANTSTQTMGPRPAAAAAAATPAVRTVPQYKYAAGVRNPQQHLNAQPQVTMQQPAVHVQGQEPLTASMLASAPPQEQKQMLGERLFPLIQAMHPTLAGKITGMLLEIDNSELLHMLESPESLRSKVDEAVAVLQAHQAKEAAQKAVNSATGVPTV

[12] = molecular target: T7, Polyadenylate-binding protein 1; test: PABP1 MLLE–PAM2 binding inhibitor potency, dose response, biochemical, fluorescence polarization, FITC-PAM2 peptide (AID 602259); type: functional; conditions: read-out: IC50_Mean
[13] = molecular target: T8, Fatty acid synthase (Homo sapiens, UniProt P49327); test: FAS thioesterase domain inhibitors, dose response, biochemical, kinetic fluorescence intensity (AID 624326); type: functional;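 note: rate of fluorescence rise from hydrolysis of a fluorogenic O-methyl fluorescein ester substrate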
T8 sequence (P49327 whole entry, the tested form may be a part): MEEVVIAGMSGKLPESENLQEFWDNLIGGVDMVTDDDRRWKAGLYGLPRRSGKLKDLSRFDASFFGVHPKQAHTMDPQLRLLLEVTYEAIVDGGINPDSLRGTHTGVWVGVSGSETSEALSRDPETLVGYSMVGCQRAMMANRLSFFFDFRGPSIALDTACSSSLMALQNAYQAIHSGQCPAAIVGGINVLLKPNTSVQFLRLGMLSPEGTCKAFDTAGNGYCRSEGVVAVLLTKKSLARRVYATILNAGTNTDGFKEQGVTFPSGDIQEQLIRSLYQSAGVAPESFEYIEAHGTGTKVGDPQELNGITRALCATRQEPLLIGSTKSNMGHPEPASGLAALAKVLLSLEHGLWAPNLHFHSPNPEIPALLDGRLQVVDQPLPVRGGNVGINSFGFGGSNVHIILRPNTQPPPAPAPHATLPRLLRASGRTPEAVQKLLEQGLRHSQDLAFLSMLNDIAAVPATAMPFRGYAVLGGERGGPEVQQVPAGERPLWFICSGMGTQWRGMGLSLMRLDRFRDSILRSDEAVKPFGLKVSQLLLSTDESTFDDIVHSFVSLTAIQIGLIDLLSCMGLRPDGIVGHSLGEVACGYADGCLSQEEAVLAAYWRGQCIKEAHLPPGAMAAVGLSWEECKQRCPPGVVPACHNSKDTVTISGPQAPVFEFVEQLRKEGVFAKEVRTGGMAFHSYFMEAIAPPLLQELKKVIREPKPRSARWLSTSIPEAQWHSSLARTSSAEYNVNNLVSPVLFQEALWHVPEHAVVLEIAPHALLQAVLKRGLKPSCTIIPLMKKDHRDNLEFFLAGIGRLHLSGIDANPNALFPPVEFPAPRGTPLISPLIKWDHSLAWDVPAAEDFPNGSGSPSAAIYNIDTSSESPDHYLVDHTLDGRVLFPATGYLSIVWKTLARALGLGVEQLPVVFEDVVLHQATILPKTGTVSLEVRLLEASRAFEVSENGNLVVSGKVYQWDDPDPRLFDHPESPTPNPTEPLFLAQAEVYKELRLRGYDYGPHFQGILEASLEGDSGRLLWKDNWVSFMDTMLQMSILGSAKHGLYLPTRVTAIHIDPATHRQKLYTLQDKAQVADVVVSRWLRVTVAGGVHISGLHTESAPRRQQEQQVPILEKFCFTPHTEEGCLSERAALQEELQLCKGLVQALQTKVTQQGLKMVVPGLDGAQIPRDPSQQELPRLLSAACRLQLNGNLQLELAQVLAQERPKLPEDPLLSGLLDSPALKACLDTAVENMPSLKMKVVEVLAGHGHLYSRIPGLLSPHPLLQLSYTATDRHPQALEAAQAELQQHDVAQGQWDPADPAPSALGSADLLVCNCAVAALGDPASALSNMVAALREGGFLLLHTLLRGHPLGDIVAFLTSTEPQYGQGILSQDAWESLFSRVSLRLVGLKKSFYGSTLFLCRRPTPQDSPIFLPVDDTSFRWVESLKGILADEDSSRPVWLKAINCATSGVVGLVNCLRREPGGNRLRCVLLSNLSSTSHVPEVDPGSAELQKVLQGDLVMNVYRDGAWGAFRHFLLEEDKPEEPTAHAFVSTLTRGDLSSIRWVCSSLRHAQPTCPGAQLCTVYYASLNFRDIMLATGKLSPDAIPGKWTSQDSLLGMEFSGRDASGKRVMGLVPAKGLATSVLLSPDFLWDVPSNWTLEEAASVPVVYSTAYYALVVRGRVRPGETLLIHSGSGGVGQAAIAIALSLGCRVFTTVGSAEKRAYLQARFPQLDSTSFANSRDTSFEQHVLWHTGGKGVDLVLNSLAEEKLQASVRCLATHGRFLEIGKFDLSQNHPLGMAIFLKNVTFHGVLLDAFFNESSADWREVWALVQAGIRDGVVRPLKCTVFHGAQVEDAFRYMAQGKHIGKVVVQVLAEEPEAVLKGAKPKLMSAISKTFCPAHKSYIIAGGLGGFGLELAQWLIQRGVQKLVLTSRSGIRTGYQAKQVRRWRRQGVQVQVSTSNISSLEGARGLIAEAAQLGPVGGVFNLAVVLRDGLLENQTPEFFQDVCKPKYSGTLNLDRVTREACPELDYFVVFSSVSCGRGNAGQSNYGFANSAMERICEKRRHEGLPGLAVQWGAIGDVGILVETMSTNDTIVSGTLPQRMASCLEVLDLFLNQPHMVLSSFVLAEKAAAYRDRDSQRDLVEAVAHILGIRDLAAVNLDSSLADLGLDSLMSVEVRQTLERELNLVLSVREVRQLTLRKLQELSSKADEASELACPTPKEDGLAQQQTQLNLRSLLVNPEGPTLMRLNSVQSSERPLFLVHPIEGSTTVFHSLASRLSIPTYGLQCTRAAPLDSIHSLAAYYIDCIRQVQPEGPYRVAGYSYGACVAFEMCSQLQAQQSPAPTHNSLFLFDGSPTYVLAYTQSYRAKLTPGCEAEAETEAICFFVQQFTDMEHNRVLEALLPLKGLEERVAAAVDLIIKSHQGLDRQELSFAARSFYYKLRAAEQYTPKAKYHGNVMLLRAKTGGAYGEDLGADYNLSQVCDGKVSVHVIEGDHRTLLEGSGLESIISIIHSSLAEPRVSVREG

[14] = molecular target: T8, Fatty acid synthase; test: FAS thioesterase domain inhibitors, dose response, biochemical, endpoint fluorescence intensity, uHTS hits (AID 624327); type: functional;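 note: fluorescence from hydrolysis of an O-methyl fluorescein acyl ester substrate by the enzyme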
[15] = Luminescence Cell-Based Dose Confirmation HTS to Identify Activators of 5'UTR Stem-Loop Driven Alpha-Synuclein mRNA Translation in H4 Neuroglioblastoma Cells. [Related pubchem assays: 1829 (Project Summary), 1814 (Primary HTS)]; type: functional
[16] = test system: H4; test: Luminescence Cell-Based Dose Response HTS to Identify Activators of 5'UTR Stem-Loop Driven Prion Protein mRNA Translation in H4 Neuroglioblastoma Cells. [Related pubchem assays: 1829 (Project Summary), 1814 (Primary HTS)]; type: functional; conditions: Homo sapiens
[17] = Luminescence Cell-Based Dose Response HTS to Identify Activators of Luciferase Translation or Activity in H4 […] Cells. [Related pubchem assays: 1829 (Project Summary), 1814 (Primary HTS)]; type: functional

T1 sequence (Q9HC16 whole entry): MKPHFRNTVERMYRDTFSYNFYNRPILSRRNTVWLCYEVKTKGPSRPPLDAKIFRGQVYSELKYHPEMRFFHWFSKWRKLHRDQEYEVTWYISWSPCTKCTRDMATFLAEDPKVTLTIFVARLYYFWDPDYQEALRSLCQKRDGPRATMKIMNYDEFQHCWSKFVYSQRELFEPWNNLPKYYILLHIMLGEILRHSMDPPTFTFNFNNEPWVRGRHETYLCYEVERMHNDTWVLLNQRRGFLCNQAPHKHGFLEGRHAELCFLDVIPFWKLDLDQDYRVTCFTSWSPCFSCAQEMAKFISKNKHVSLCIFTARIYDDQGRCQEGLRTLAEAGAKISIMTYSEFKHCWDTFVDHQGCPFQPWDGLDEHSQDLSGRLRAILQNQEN

Q: For `CCCCCC(O)CCc1nnc(S)n1-c1ccccc1` (configuration not stated), which IC50 [1] is on record?
A: 6.33 µM (active)

Q: And the IC50 [2]?
A: > 100 µM (inactive)

Q: Which IC50 [3] does the source give for `COc1cc(NC(=O)COc2ccc(-n3cnnn3)cc2)c(OC)cc1Cl` here?
A: 8.31 µM (active)

Q: Which EC50 [4] does the source give for `O=C(Nc1cc[n+](-c2nc3ccccc3nc2[N-]S(=O)(=O)c2ccc(Cl)cc2)cc1)c1cccs1` here?
A: > 99 µM (inactive)

Q: What about the EC50 [5] of the same molecule?
A: > 99 µM (inactive)

Q: With `CCN1CCN(Cc2ccc(NC(=O)Nc3ccc(OC)cc3)cc2)CC1` as the molecule, how does the IC50 [6] read?
A: 25.1 µM (active)

Q: With `O=C(O)CCCNC(=O)/C(=C\C=C\c1ccccc1)NC(=O)c1ccccc1Cl` as the molecule, how does the IC50 [6] read?
A: 86.8 µM (active)

Q: Which EC50 [7] does the source give for `FC(F)(F)c1nc(N2CCCC2)ncc1-c1nnnn1-c1ccc(Cl)cc1` here?
A: 14.6 µM (active)

Q: Which IC50 [3] does the source give for `COc1ccc(-n2c(SCC(=O)Nc3ccc4c(c3)OCO4)nnc2C(C)N2CCCCC2)cc1` (configuration not stated) here?
A: > 50 µM (not active)

Q: Which EC50 [4] does the source give for `O=C(OCCNc1ccc(C(F)(F)F)cc1[N+](=O)[O-])c1cc2ccccc2oc1=O` here?
A: 27.7 µM (inactive)

Q: What about the EC50 [5] of the same molecule?
A: 89.7 µM (inactive)

Q: Which results are given for `CCc1n(CC(O)COC2CCCCC2)c2ccccc2[n+]1C` (configuration not stated)?
A: IC50 [8]: 1.75 µM (active); IC50 [9]: 1.42 µM (active)

Q: With `O=C(NN1C(=O)c2ccccc2NC1c1ccccn1)c1ccccc1` (configuration not stated) as the molecule, how does the IC50 [10] read?
A: 81.1 µM (active)

Q: Which results are given for `COc1ccc(N2C(=O)CC(Sc3n[nH]c(-c4ccccc4)n3)C2=O)cc1` (configuration not stated)?
A: IC50 [1]: 14.9 µM (active); IC50 [2]: > 100 µM (inactive)

Q: Which results are given for `Cc1ccc(NC(=O)CC2SC3=NCCN3C2=O)cc1` (configuration not stated)?
A: IC50 [11]: > 66 µM (inactive); IC50 [12]: > 66 µM (inactive)

Q: Which EC50 [4] does the source give for `NC(=O)CSc1nnc(-c2cc(-c3cccs3)nc3ccccc23)o1` here?
A: > 99 µM (inactive)

Q: And the EC50 [5]?
A: > 99 µM (inactive)

Q: With `O=C(O)c1cccc(S(=O)(=O)Nc2ccc(O)cc2Sc2nc3ccccc3s2)c1` as the molecule, how does the IC50 [6] read?
A: 9.02 µM (active)

Q: With `O=C(c1ccc([N+](=O)[O-])cc1)N1CCC(Cc2ccccc2)CC1` as the molecule, how does the IC50 [13] read?
A: 8.61 µM (active)

Q: What about the IC50 [14] of the same molecule?
A: 10.9 µM (active)

Q: For `Cc1ccccc1NC(=O)N1CCCC(c2nc(-c3ccc(C(C)C)cc3)no2)C1` (configuration not stated), which EC50 [15] is on record?
A: 5.18 µM (active)

Q: And the EC50 [16]?
A: 23.1 µM (active)

Q: What about the EC50 [17] of the same molecule?
A: 157 nM (active)

Q: And the EC50 [7]?
A: 8.11 µM (active)
